Laboratory results as given in DBAASP.
≈ marks a conversion by molar mass, not a printed value.

Tests used:
Test in all cases: ≥ marks a high value that may be exact or a test limit, other limits are often not marked, values filed in µg/mL are converted to µM
[1] = tested on: Staphylococcus aureus 5118
[2] = tested on: Staphylococcus aureus ATCC 9144
[3] = tested on: Staphylococcus aureus E4049
Escherichia coli = tested on: Escherichia coli
Pseudomonas tolaasii = tested on: Pseudomonas tolaasii
Ralstonia solanacearum = tested on: Ralstonia solanacearum
Bacillus thuringiensis = tested on: Bacillus thuringiensis
Micrococcus luteus A270 = tested on: Micrococcus luteus A270
[4] = tested on: Salmonella enterica subsp. arizonae ATCC 13314
[5] = tested on: Escherichia coli DH5alpha
[6] = tested on: Staphylococcus epidermidis ATCC 12228
[7] = tested on: Pseudomonas aeruginosa ATCC 27853
Escherichia coli D31 = tested on: Escherichia coli D31
[8] = tested on: Staphylococcus aureus ATCC 29213
[9] = tested on: Staphylococcus epidermidis KCTC 1917
[10] = tested on: Staphylococcus aureus KCTC 1621
[11] = tested on: Enterococcus faecium ATCC 51559
[12] = tested on: Pseudomonas aeruginosa KCTC 1637
[13] = tested on: Enterococcus faecalis ATCC 51575
[14] = tested on: Enterococcus faecalis KCCM 29212
[15] = tested on: Escherichia coli KCTC 1682
[16] = tested on: Bacillus subtilis KCTC 3068
[17] = tested on: Enterococcus faecium KCCM 12118
[18] = tested on: Salmonella typhimurium KCTC 1926
[19] = tested on: Staphylococcus aureus KCCM 40510

CC[C@H](C)[C@H](NC(=O)[C@H](CC(C)C)NC(=O)CNC(=O)[C@H](CCSC)NC(=O)[C@@H](NC(=O)[C@H](CC(C)C)NC(=O)[C@H](CCC(N)=O)NC(=O)CNC(=O)[C@H](Cc1ccccc1)NC(=O)[C@@H](NC(=O)[C@@H](N)CO)C(C)C)C(C)C)C(=O)N[C@@H](CC(C)C)C(=O)N[C@@H](CO)C(=O)N[C@@H](CO)C(=O)N[C@H](C(=O)N[C@@H](Cc1ccccc1)C(=O)N[C@@H](Cc1ccc(O)cc1)C(=O)N[C@@H](CC(N)=O)C(=O)N[C@@H](CC(=O)O)C(=O)N[C@@H](CC(=O)O)C(=O)O)C(C)C [SVFGQLVMGLILSSVFYNDD]
MIC [1]: 1.81 µM (≈ 4 µg/mL) | MIC [2]: 15.9 µM (≈ 35 µg/mL) | MIC [3]: ≥ 250 µM

CC[C@H](C)[C@H](NC(=O)[C@H](CCCCN)NC(=O)CNC(=O)[C@H](CC(C)C)NC(=O)[C@@H](NC(=O)[C@H](CCCCN)NC(=O)[C@H](CCCCN)NC(=O)[C@H](CC(C)C)NC(=O)[C@H](CC(N)=O)NC(=O)[C@@H](N)CC(C)C)[C@@H](C)CC)C(=O)NCC(=O)N[C@H](C(=O)N[C@@H](CCSC)C(=O)N[C@@H](CC(C)C)C(=O)N[C@@H](CO)C(=O)N[C@@H](Cc1cnc[nH]1)C(=O)N[C@@H](CC(C)C)C(=O)N[C@@H](CC(N)=O)C(=O)O)C(C)C [LNLKKILGKIGVMLSHLN]
MIC (Escherichia coli): 0.402 µM (≈ 0.8 µg/mL) | MIC (Pseudomonas tolaasii): 1.36 µM (≈ 2.7 µg/mL) | MIC (Ralstonia solanacearum): 1.05 µM (≈ 2.1 µg/mL) | MIC (Bacillus thuringiensis): 1.46 µM (≈ 2.9 µg/mL)

CC[C@H](C)[C@H](NC(=O)[C@H](CCC(N)=O)NC(=O)[C@@H](NC(=O)CNC(=O)[C@@H](NC(=O)[C@H](CC(C)C)NC(=O)[C@H](CC(C)C)NC(=O)[C@H](Cc1ccccc1)NC(=O)[C@@H]1CCCN1C(=O)[C@@H](N)[C@@H](C)O)C(C)C)[C@@H](C)O)C(=O)N[C@@H](CC(=O)O)C(=O)N[C@@H](CC(C)C)C(=O)N[C@@H](CCCN=C(N)N)C(=O)O [TPFLLVGTQIDLR]
MIC (Micrococcus luteus A270): 4.7 µM (≈ 6.92 µg/mL) | MIC [4]: 2.4 µM (≈ 3.53 µg/mL) | MIC [5]: 2.4 µM (≈ 3.53 µg/mL) | MIC [6]: 1.2 µM (≈ 1.77 µg/mL) | MIC [7]: 4.7 µM (≈ 6.92 µg/mL) | MIC (Escherichia coli D31): 2.4 µM (≈ 3.53 µg/mL) | MIC [8]: 1.2 µM (≈ 1.77 µg/mL)

CC[C@H](C)[C@H](NC(=O)[C@H](CCCN=C(N)N)NC(=O)[C@H](CC(C)C)NC(=O)[C@@H](N)CC(C)C)C(=O)N[C@@H](C)C(=O)N[C@@H](CC(C)C)C(=O)N[C@@H](CCCN=C(N)N)C(=O)N[C@@H](CCCCN)C(=O)N[C@@H](CCCCN)C(N)=O [LLRIALRKK]
MIC [9]: 3.6 µM (≈ 4 µg/mL) | MIC [10]: 28.8 µM (≈ 32 µg/mL) | MIC [11]: 7.2 µM (≈ 7.99 µg/mL) | MIC [12]: 7.2 µM (≈ 7.99 µg/mL) | MIC [13]: ≥ 57.6 µM | MIC [14]: 28.8 µM (≈ 32 µg/mL) | MIC [15]: 3.6 µM (≈ 4 µg/mL) | MIC [16]: 14.4 µM (≈ 16 µg/mL) | MIC [17]: 28.8 µM (≈ 32 µg/mL) | MIC [18]: 7.2 µM (≈ 7.99 µg/mL) | MIC [19]: 14.4 µM (≈ 16 µg/mL)
